Columns and labels:
[1] = tested on: p53, DNA damage response (γH2AX); test: p53 and DNA damage response activation in RKO cells (Western blot, primary screen and dose response); type: cell-based; design: p53 stabilization: dose or concentration left out as unconfirmed; details: for DDR & p53 activity: 16 hours, Western blot, average value
Procedure: (§1) Primary Screen in RKO cells for compounds having typical CKIα inhibitory activity (β-catenin and p53 stabilization and histone H2AX phosphorylation; see Elyada et al, Nature 2011 Feb. 17; 470(7334):409-13; Pribluda et al, Cancer Cell 2013 Aug. 12; 24(2):242-56). RKO colorectal cells were incubated with 10 μM of each of the compounds for 16 hours at 37° C. Cells were washed with PBS and cell pellets were incubated with ice cold protein lysis buffer containing protease inhibitor cocktail (1/200; Calbiochem) and phosphatase inhibitors (20 mM p-nitrophenyl phosphate (PNPP), 20 mM β-glycerophosphate and 300 nM okadaic acid). Western blot analysis was performed by means of standard techniques. Blots were incubated with antibodies detecting β-catenin (1/2,500; BD Transduction), p53 (DO-1&1801 hybridoma mix; dilution of 1:20 of supernatants from each), CKIα (C-19; 1/1,000; Santa Cruz Biotechnology) and phospho-histoneH2AX (S139; 1/1,000; Millipore). Secondary antibodies were HRP-linked goat anti-mouse, goat anti-rabbit and rabbit anti-goat antibodies (all 1/10,000; Jackson). Blots were developed using ECL (GE Healthcare).
(§2) Active compounds were further analyzed in a dose-response experiment (FIGS. 1A and 1B). Similar to the primary screen, RKO cells were incubated with descending concentrations of each of the active compounds for 16 hours at 37° C. Cell extract isolation and Western Blot analysis were similar to the primary screen.
(§3) Table 1 provides quantified information for compounds of the invention in activation of p53 and DNA damage response (DDR) and β-catenin stabilization as an indicator of Wnt pathway activation. p53 activation was determined according to the degree of protein stabilization in several Western blot assays (Western blot examples are shown in FIGS. 1A and 1B). […] In contrast, A35 started stabilizing p53 at […], with maximal stabilization at […] (FIG. 1A, upper right panel) and thus received an average value of +++ for p53 activation.

Wnt/β-catenin = test: β-catenin stabilization (Wnt pathway activation) in RKO cells (Western blot); type: cell-based; design: concentration at which β-catenin was stabilized: unit not given here; details: for β-Catenin activity: 16 hours, Western blot
Procedure: as §1, §2, §3

Row | SMILES | DDR & p53 activity [1] | β-Catenin activity (Wnt/β-catenin) | other results
1 | Cn1ncc(-c2ccnc(NC3CCC(N)(CO)CC3)n2)c1CC1CC1 (stereo not shown) [Compound A19, (1-amino-4-((4-(5-(cyclopropylmethyl)-1-methyl-1H-pyrazol-4-yl)pyrimidin-2-yl)amino)cyclohexyl)methanol] | + (+ indicates low, yet significant activation at a compound concentration of 6 μM) | + (+ indicates low, yet significant activation at a compound concentration of 6 μM) | –
2 | Cn1ncc(-c2ccnc(NC3CCC4(CC3)NC(=O)NC4=O)n2)c1CC1CC1 (stereo not shown) [Compound A19-4, 8-((4-(5-(cyclopropylmethyl)-1-methyl-1H-pyrazol-4-yl)pyrimidin-2-yl)amino)-1,3-diazaspiro[4.5]decane-2,4-dione] | – | +++ (+++ indicates maximal β-catenin or p53 stabilization at >2 μM) | p53 stabilization and γH2AX induction (in words) ([1]; FIG. 1A): neither stabilized p53, nor induced γH2AX; concentration at which β-catenin was stabilized (Wnt/β-catenin; FIG. 1A): 2
3 | Cn1ncc(-c2ccnc(NC3CCC4(CC3)COC(=O)N4)n2)c1CC1CC1 (stereo not shown) [Compound A26, 8-((4-(5-(cyclopropylmethyl)-1-methyl-1H-pyrazol-4-yl)pyrimidin-2-yl)amino)-3-oxa-1-azaspiro[4.5]decan-2-one] | + (+ indicates low, yet significant activation at a compound concentration of 6 μM) | + (+ indicates low, yet significant activation at a compound concentration of 6 μM) | –
4 | Cn1ncc(-c2ccnc(N[C@H]3CC[C@H](N(C)C)CC3)n2)c1CC1CC1 [Compound A28, (1r, 4r)-N^1-(4-(5-(cyclopropylmethyl)-1-methyl-1H-pyrazol-4-yl)pyrimidin-2-yl)-N4,N4-dimethylcyclohexane-1,4-diamine] | – | +++ (+++ indicates maximal β-catenin or p53 stabilization at >2 μM) | –
5 | Cn1ncc(-c2nc(NC3CCC(C)(N)CC3)ncc2Cl)c1CC1CC1 [Compound A30-1, (1R,4R)—N^1-(5-chloro-4-(5-(cyclopropylmethyl)-1-methyl-1H-pyrazol-4-yl)pyrimidin-2-yl)-4-methylcyclohexane-1,4-diamine] | ++++ (++++ indicates maximal activation of p53 and DDR at >0.5 μM) | – | –
6 | CC(C)n1ncc(-c2ccnc(N[C@H]3CC[C@H](N)CC3)n2)c1CC1CC1 [Compound A35, (1r, 4r)-N^1-(4-(5-(cyclopropylmethyl)-1-isopropyl-1H-pyrazol-4-yl)pyrimidin-2-yl)cyclohexane-1,4-diamine] | +++ (+++ indicates maximal β-catenin or p53 stabilization at >2 μM) | – | concentration at which p53 stabilization starts / is significantly above non-treatment control ([1]; FIG. 1A): 0.2 µM; concentration of maximal p53 stabilization ([1]; FIG. 1A): 1 µM
7 | N[C@H]1CC[C@H](Nc2nccc(-c3cnn(C4COC4)c3CC3CC3)n2)CC1 [Compound A43, (1R, 4R)—N^1-(4-(5-(cyclopropylmethyl)-1-(oxetan-3-yl)-1H-pyrazol-4-yl)pyrimidin-2-yl)cyclohexane-1,4-diamine] | + (+ indicates low, yet significant activation at a compound concentration of 6 μM) | – | concentration at which p53 stabilization starts / is significantly above non-treatment control ([1]; FIG. 1A): 6 µM; p53 stabilization ([1]; FIG. 1A): no activity
8 | Cn1ncc(-c2ccnc(N[C@H]3CC[C@H](N)CC3)n2)c1CC1CCC1 [Compound A45, (1R, 4R)—N^1-(4-(5-(cyclobutylmethyl)-1-methyl-1H-pyrazol-4-yl)pyrimidin-2-yl)cyclohexane-1,4-diamine] | – | + (+ indicates low, yet significant activation at a compound concentration of 6 μM) | –
9 | Cn1ncc(-c2ccnc(N[C@H]3CC[C@H](N4CCCCC4)CC3)n2)c1CC1CC1 [Compound A47, 4-(5-(cyclopropylmethyl)-1-methyl-1H-pyrazol-4-yl)-N-((1R,4R)-4-(piperidin-1-yl)cyclohexyl)pyrimidin-2-amine] | – | + (+ indicates low, yet significant activation at a compound concentration of 6 μM) | –
10 | Cn1ncc(-c2ccnc(N[C@H]3CC[C@H](N4CCCC4)CC3)n2)c1CC1CC1 [Compound A49, 4-(5-(cyclopropylmethyl)-1-methyl-1H-pyrazol-4-yl)-N-((1R, 4R)-4-(pyrrolidin-1-yl)cyclohexyl)pyrimidin-2-amine] | + (+ indicates low, yet significant activation at a compound concentration of 6 μM) | – | –
11 | Cn1ncc(-c2ccnc(N[C@H]3CC[C@H](N4CCC4)CC3)n2)c1CC1CC1 [Compound A50, N-((1R, 4R)-4-(azetidin-1-yl)cyclohexyl)-4-(5-(cyclopropylmethyl)-1-methyl-1H-pyrazol-4-yl)pyrimidin-2-amine] | +++ (+++ indicates maximal β-catenin or p53 stabilization at >2 μM) | – | –
12 | Cn1ncc(-c2ccnc(N[C@H]3CC[C@H](N)CC3)n2)c1C(O)C1CC1 (stereo partly drawn) [Compound A58, (4-(2-(((1R,4R)-4-aminocyclohexyl)amino)pyrimidin-4-yl)-1-methyl-1H-pyrazol-5-yl)(cyclopropyl)methanol] | + (+ indicates low, yet significant activation at a compound concentration of 6 μM) | – | –
13 | CC(C)n1ncc(-c2nc(N[C@H]3CC[C@H](N)CC3)ncc2Cl)c1CC1CC1 [Compound A59, (1R,4R)—N^1-(5-chloro-4-(5-(cyclopropylmethyl)-1-isopropyl-1H-pyrazol-4-yl)pyrimidin-2-yl)cyclohexane-1,4-diamine] | +++ (+++ indicates maximal β-catenin or p53 stabilization at >2 μM) | – | –
14 | Cn1ncc(-c2nc(N[C@H]3CC[C@H](n4cccn4)CC3)ncc2Cl)c1CC1CC1 [Compound A64, N-((1R,4R)-4-(1H-pyrazol-1-yl)cyclohexyl)-5-chloro-4-(5-(cyclopropylmethyl)-1-methyl-1H-pyrazol-4-yl)pyrimidin-2-amine] | + (+ indicates low, yet significant activation at a compound concentration of 6 μM) | – | –
15 | Cn1ncc(-c2nc(NC3CCC(NCc4ccccc4)CC3)ncc2Cl)c1CC1CC1 [Compound A74, (1R,4R)—N^1-benzyl-N^4-(5-chloro-4-(5-(cyclopropylmethyl)-1-methyl-1H-pyrazol-4-yl)pyrimidin-2-yl)cyclohexane-1,4-diamine] | +++ (+++ indicates maximal β-catenin or p53 stabilization at >2 μM) | – | –
16 | Cn1ncc(-c2nc(NC3CCC(NCc4cccnc4)CC3)ncc2Cl)c1CC1CC1 [Compound A76, (1R,4R)—N^1-(5-chloro-4-(5-(cyclopropylmethyl)-1-methyl-1H-pyrazol-4-yl)pyrimidin-2-yl)-N^4-(pyridin-3-ylmethyl)cyclohexane-1,4-diamine] | +++ (+++ indicates maximal β-catenin or p53 stabilization at >2 μM) | – | –
17 | Cn1ncc(-c2nc(NC3CCC(NCc4ccn[nH]4)CC3)ncc2Cl)c1CC1CC1 [Compound A82, (1R,4R)—N^1-((1H-pyrazol-3-yl)methyl)-N^4-(5-chloro-4-(5-(cyclopropylmethyl)-1-methyl-1H-pyrazol-4-yl)pyrimidin-2-yl)cyclohexane-1,4-diamine] | +++ (+++ indicates maximal β-catenin or p53 stabilization at >2 μM) | – | –
18 | Cc1[nH]ncc1CN[C@H]1CC[C@H](Nc2ncc(Cl)c(-c3cnn(C)c3CC3CC3)n2)CC1 [Compound A91, (1R,4R)—N^1-(5-chloro-4-(5-(cyclopropylmethyl)-1-methyl-1H-pyrazol-4-yl)pyrimidin-2-yl)-N^4-((5-methyl-1H-pyrazol-4-yl)methyl)cyclohexane-1,4-diamine] | +++ (+++ indicates maximal β-catenin or p53 stabilization at >2 μM) | – | –
19 | Cn1ncc(-c2nc(N[C@H]3CC[C@H](NCC(F)(F)F)CC3)ncc2Cl)c1CC1CC1 [Compound A94, (1R,4R)—N^1-(5-chloro-4-(5-(cyclopropylmethyl)-1-methyl-1H-pyrazol-4-yl)pyrimidin-2-yl)-N^4-(2,2,2-trifluoroethyl)cyclohexane-1,4-diamine] | + (+ indicates low, yet significant activation at a compound concentration of 6 μM) | – | –
20 | Cn1ncc(-c2nc(N[C@H]3CC[C@H](N(Cc4cn[nH]c4)CC(F)(F)F)CC3)ncc2Cl)c1CC1CC1 [Compound A95, (1R,4R)—N1-((1H-pyrazol-4-yl)methyl)-N4-(5-chloro-4-(5-(cyclopropylmethyl)-1-methyl-1H-pyrazol-4-yl)pyrimidin-2-yl)-N1-(2,2,2-trifluoroethyl)cyclohexane-1,4-diamine] | +++ (+++ indicates maximal β-catenin or p53 stabilization at >2 μM) | – | –
